Laboratory results as given in ChEMBL document CHEMBL1150011 (Bioorg Med Chem Lett, 1996).

Experiments:
Rattus norvegicus [1] = assay: Diuretic activity in rat was determined by measuring sodium excretion at a dose of 10 mg/kg upon oral administration; format: functional, Urine
Rattus norvegicus [2] = assay: Diuretic activity in rat was determined by measuring urine volume at a dose of 10 mg/kg upon oral administration; format: functional
Adenosine receptor A1 [3] = target: T1, Adenosine receptor A1 (Cavia porcellus, UniProt P47745); assay: Inhibition of adenosine induced negative inotropic activity against guinea-pig atria (Adenosine A1 receptor); format: functional
T1 sequence (P47745 whole entry): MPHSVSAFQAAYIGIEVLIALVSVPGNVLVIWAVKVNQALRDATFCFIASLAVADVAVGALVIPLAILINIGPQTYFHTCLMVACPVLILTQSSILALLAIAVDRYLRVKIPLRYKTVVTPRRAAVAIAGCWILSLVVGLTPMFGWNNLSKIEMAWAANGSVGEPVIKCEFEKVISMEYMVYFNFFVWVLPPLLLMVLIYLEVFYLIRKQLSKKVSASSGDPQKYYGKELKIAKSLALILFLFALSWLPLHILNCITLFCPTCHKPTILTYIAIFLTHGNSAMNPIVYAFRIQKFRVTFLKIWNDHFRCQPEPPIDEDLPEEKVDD

Adenosine receptor A1 [4] = target: T2, Adenosine receptor A1 (Rattus norvegicus, UniProt P25099); assay: Inhibition of [3H]CHA binding against Adenosine A1 receptors of rat cortical membranes; format: cell membranes, Membrane
T2 sequence (P25099 whole entry): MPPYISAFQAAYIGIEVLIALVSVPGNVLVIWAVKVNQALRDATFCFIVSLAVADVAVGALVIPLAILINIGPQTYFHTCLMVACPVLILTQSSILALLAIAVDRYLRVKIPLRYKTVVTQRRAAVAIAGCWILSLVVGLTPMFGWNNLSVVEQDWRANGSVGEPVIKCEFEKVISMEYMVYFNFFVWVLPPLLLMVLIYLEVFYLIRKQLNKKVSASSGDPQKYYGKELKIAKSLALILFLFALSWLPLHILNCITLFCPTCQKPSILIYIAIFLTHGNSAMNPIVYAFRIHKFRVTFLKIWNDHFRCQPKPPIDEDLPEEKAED

Adenosine receptor A1 [5] = target: T1, Adenosine receptor A1; assay: Inhibition of adenosine induced negative inotropic activity against guinea-pig atria (Adenosine A1 receptor) at 10 nM; format: functional

Row | Structure (SMILES) | Sodium excretion (% of control) (Rattus norvegicus [1]) [%] | Urine volume (% of control) (Rattus norvegicus [2]) [%] | IC50 (Adenosine receptor A1 [3]) [µM] | IC50 (Adenosine receptor A1 [4]) [µM] | IC50 (Adenosine receptor A1 [5]) [µM]
1 | CC[C@@H]1CCCCN1C(=O)/C=C/c1c(-c2ccccc2)nn2ccccc12 | 220 | 201 |  |  | 
2 | O=C(/C=C/c1c(-c2ccccc2)nn2ccccc12)N1CCCCC1 | 179 | 195 |  |  | 
3 | CC[C@H]1CCCCN1C(=O)/C=C/c1c(-c2ccccc2)nn2ccccc12 | 91 | 94 |  |  | 
4 | O=C(/C=C/c1c(-c2ccccc2)nn2ccccc12)N1CCCC[C@H]1CCO | 280 | 272 | 0.00056 | 0.0172 | 
5 | CCC1CCCCN1C(=O)/C=C/c1c(-c2ccccc2)nc2sc(C)nn12 (stereo unspecified) | 278 | 242 |  |  | 0.091
6 | O=C(/C=C/c1c(-c2ccccc2)nn2ccccc12)N1CCCC[C@@H]1CCO [FK453] | 96 | 96 |  | 10.1 | 
